From patent US20200370012A1, “METHODS OF MAKING CHIMERIC ANTIGEN RECEPTOR-EXPRESSING CELLS” (Novartis AG, priority 2017, published 2020)

Experiments:
[1] = system: Anti-CD19BBζ CAR T cells; experiment: Metabolic modulation of CAR T cells: differentiation phenotype by flow cytometry after 9 days of culture with or without 2-DG; format: cell-based, human; settings: FIG. 4 and FIG. 5
Method: The following T-cell subsets are shown: naïve-like (CCR7+CD45RO−); central memory (CCR7+CD45RO+); effector memory (CCR7−CD45RO+); and effector (CCR7−CD45RO−). Anti-CD19BBζ CAR T cells were generated as in the presence or absence of the glycolysis inhibitor 2-deoxyglucose (2-DG; Sigma-Aldrich). Following 9 days of culture, the differentiation phenotype of these cells was determined by flow cytometry. CAR+T-cells were sorted on the FACSAria II cell sorter (BD Biosciences) and combined 1:1 with irradiated K562 cells engineered to express CD19 (K562-CD19). CTL019cells were re-stimulated ×3 with K562-CD19 targets. During the proliferation assay, absolute cell counts were obtained using the Luna automated cell counter (Logos Biosystems).

[2] = target: T1, STAT3 (pY705) (Homo sapiens, UniProt P40763); experiment: Measurement of pSTAT3 by Phosflow intracellular staining; format: cell-based
T1 construct: CTL019 cells from CLL patient infusion products were thawed and stimulated with anti-idiotypic antibody-coated beads or mock beads; endogenous in cells; host or cells: CTL019 (anti-CD19 4-1BB/CD3zeta CAR) T cells made from autologous T cells of CLL patients; in some experiments FACS-sorted CD8+ T cell subsets
Method: FIGS. 7A-7D show IL-6/STAT3 pathway enrichment in CAR T cells. […] Graphs show mean with s.e.m. […] Bars represent the mean and s.e.m. […] Pooled data from patients with highly functional (CR, n=3; PRTD, n=2) versus poorly functional (PR, n=3; NR, n=11) CAR T cells is shown in the box plots (right panel). Whiskers represent min. to max.; boxes represent 25-75 percentiles; the middle line indicates the median. The change in fluorescence intensity (MFI) was calculated by subtracting the […].
FIGS. 11A-11B show levels of pSTAT3 in CD27+ PD-1− CD8 T cells in response to IL-6. […] Summary of IL-6-induced pSTAT3 levels in CD8+ T cell subsets defined by CD27 and PD-1 expression from n=4 different subjects is shown in the right panel. The change in mean fluorescence intensity (AMFI) was determined by subtracting the […].
(§1) CTL019 cells from CLL patient infusion products were thawed and stimulated with anti-idiotypic antibody-coated beads or mock beads. […] The ability of Stattic to inhibit STAT3 signaling was assessed by Phosflow staining as described above. […] Absolute cell numbers and viability were simultaneously measured during the course of CAR T cell expansion using the Luna automated cell counter (Logos Biosystems).

[3] = system: CTL019 cells; experiment: Serial re-stimulation assay with irradiated K562-CD19 cells: CTL019 cells made with or without Stattic or recombinant IL-6 (cell numbers and viability); format: cell-based, human; settings: exogenous IL-6 added to culture media during manufacturing of CTL019 cells; FIG. 9
Method: FIGS. 8A-8C show inhibition of the STAT3 pathway in CAR T cells. […] CAR-specific stimulations were performed in the presence or absence of 5 μM Stattic, a small molecule inhibitor of STAT3 activation. […] CAR T cells from this representative subject were then serially re-stimulated with K562 cells engineered to express CD19 on days 0, 7 and 12 of the culture, as indicated by the arrows.
CTL019 cells from this representative subject were then serially re-stimulated with K562 cells engineered to express CD19 or mesothelin (negative control) on days 0, 7, and 12 of the culture, as indicted by the arrows.
as §1, with “beads. For some experiments, cells were stimulated for 10 minutes with recombinant human IL-6 (Miltenyi Biotec.) at a final concentration of 10 ng/mL. In cell subset evaluation experiments, populations of interest were stained for surface markers and sorted on a FACSAria II cell sorter (BD Biosciences) prior to acute stimulation with IL-6.” for “beads.”

T1 sequence (P40763 whole entry, the tested form may be a part): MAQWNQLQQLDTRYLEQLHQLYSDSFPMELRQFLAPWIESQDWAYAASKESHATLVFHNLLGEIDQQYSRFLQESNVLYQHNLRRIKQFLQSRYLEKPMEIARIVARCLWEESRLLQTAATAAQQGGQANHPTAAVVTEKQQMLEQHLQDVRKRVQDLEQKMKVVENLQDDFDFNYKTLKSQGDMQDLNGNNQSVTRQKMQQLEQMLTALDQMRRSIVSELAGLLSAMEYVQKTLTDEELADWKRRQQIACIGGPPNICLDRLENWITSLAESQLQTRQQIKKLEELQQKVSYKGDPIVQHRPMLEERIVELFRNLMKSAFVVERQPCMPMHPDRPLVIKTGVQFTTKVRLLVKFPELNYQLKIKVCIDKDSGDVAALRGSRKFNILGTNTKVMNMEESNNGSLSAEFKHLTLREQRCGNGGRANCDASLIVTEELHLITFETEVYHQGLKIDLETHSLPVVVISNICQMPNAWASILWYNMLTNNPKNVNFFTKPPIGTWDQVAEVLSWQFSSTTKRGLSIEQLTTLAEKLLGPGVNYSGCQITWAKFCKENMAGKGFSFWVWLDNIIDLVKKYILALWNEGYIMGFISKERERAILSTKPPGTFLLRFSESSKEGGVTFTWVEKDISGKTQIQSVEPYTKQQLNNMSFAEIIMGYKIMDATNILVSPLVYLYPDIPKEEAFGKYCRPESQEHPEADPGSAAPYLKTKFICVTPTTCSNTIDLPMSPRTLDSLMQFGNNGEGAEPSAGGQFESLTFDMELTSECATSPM

pSTAT3 activity ([2]; exogenous IL-6 added to culture media during manufacturing of CTL019 cells)	pSTAT3 in response to IL-6 stimulation ([2]; sorted CD27+PD-1− CD8+ subset, recombinant IL-6 10 ng/ml, FIG. 11A)	Compound	effector differentiation ([1]; CAR T cells cultured 9 days in presence vs absence of 2-DG)	frequencies of CAR T cells with a central memory phenotype ([1]; CCR7+CD45RO+, cultured 9 days in presence vs absence of 2-DG)	absolute numbers of CAR T cells following repeated stimulation with CD19-expressing tumor targets [3]	expansion capacity following repeated stimulation with CD19-expressing tumor targets [3]
		OC[C@H]1O[C@H](O)C[C@@H](O)[C@@H]1O [2-DG, (4R,5S,6R)-6-(hydroxymethyl)oxane-2,4,5-triol]	decreased	increased		
Increasing	upregulates	IL-6: recombinant human IL-6 (Miltenyi Biotec.), a Stat3 activator			elevated	elevated
